Test results taken from publication PMC8623179, “Design and Microwave Synthesis of New (5Z) 5-Arylidene-2-thioxo-1,3-thiazolinidin-4-one and (5Z) 2-Amino-5-arylidene-1,3-thiazol-4(5H)-one as New Inhibitors of Protein Kinase DYRK1A” (Pharmaceuticals, 2021).
Read-outs that look alike come from different tables or passages of the source.

Tests used:
CDK5/p25 = target: T1, CDK5/p25 (Homo sapiens, UniProt Q00535); assay: CDK5/p25 kinase assay; format: biochemical; details: 15 μM ATP
T1 construct: made in house
T1 sequence (Q00535 whole entry): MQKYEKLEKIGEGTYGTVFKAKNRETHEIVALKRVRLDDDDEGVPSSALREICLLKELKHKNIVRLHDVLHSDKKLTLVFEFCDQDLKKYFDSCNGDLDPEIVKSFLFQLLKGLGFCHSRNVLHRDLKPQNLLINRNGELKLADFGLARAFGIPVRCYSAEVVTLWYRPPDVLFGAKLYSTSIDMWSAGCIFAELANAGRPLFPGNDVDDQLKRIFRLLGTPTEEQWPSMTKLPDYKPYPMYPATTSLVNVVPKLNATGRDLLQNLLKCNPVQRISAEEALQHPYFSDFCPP
T1 sequence (Q15078 99-307 partner limits assumed): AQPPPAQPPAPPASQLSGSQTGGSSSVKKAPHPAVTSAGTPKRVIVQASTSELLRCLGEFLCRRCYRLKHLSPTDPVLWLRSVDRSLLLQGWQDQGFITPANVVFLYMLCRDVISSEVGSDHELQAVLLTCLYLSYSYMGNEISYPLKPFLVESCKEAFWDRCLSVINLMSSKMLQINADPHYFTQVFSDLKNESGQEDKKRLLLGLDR
Protocol: (§1) The twenty-two (5Z) 5-arylidene-2-thioxo-1,3-thiazolidin-4-ones 3a–v and the twenty-four (5Z) 2-amino-5-arylidene-1,3-thiazolidin-4(5H)-ones 5a–x were evaluated against four different and representative in vitro kinase assays DYRK1A (dual specificity tyrosine phosphorylation regulated kinase), CK1 δ/e (caseine kinase 1), CDK5/p25 (cyclin dependant kinase), and GSK3 α/β (glycogen synthase kinase 3) to evaluate their inhibition potency. […] All the compounds were initially tested at a 10 μM concentration.
(§2) After 30-min incubation at 30 °C, the reaction was stopped by harvesting, using a FilterMate harvester (Packard), onto P81 phospho-cellulose papers (GE Healthcare, Chicago, IL, USA) which were washed in 1% phosphoric acid. Scintillation fluid was added and the radioactivity measured in a Packard counter. Blank values were subtracted and activities calculated as pmoles of phosphate incorporated for the 30-min incubation. The activities were expressed in % of the maximal activity, i.e., in the absence of inhibitors. Controls were performed with appropriate dilutions of DMSO.
CDK5/p25 (human, recombinant) was prepared as previously described. […] ATP (3000 Ci/mmol; 10 mCi/mL) in a final volume of 30 μL. After 30-min incubation at 30 °C, 25 μL aliquots of supernatant were spotted onto 2.5 × 3 cm pieces of Whatman P81 phospho-cellulose paper, and, 20 s later, the filters were washed five times (for at least 5 min each time) in a solution of 10 mL phosphoric acid/litter of water. The wet filters were counted in the presence of 1 mL ACS (Amersham, UK) scintillation fluid.

GSK-3α/β = GSK-3α/β kinase assay; format: biochemical, porcine; details: 15 μM ATP, read-out: IC50 GSK3α/β
Protocol: as §1, §2
GSK-3α/β (porcine brain, native) was assayed, as described for CDK5/p25 but in Buffer A and using a GSK-3 specific substrate (GS-1: […]pEDEEE) (pS stands for phosphorylated serine). GS-1 was synthesized by Millegen (Labege, France).

Casein kinase 1 (CK1δ/ε) = assay: CK1δ/ε kinase assay; format: biochemical, porcine; details: 15 μM ATP, read-out: IC50 CK1
Protocol: as §1, §2
Casein kinase 1 (CK1δ/ε) (porcine brain, native) was assayed with 0.67 µg of CKS peptide ([…]pSAYSITA), a CK1 specific substrate obtained from Millegen (Labege, France).

DYRK1A = target: T2, DYRK1A (Rattus norvegicus, UniProt Q63470); assay: DYRK1A kinase assay; format: biochemical; details: 15 μM ATP
T2 construct: GST; made in house; host or cells: Escherichia coli
Protocol: as §1
as §2, with “DMSO. […]” for “DMSO.”

SMILES | IC50 (CDK5/p25; Table 4) [µM] | IC50 (GSK-3α/β; Table 4) [µM] | IC50 (Casein kinase 1 (CK1δ/ε); Table 4) [µM] | IC50 (DYRK1A; Table 4) [µM] | IC50 (CDK5/p25; Table 5) [µM] | IC50 (GSK-3α/β; Table 5) [µM] | IC50 (Casein kinase 1 (CK1δ/ε); Table 5) [µM] | IC50 (DYRK1A; Table 5) [µM]
O=C1NC(=S)S/C1=C\c1ccc(O)cc1 [Compound 3e, (5Z)-5-(4-Hydroxybenzylidene)-2-thioxo-1,3-thiazolidin-4-one] | > 10 | > 10 | > 10 | 0.028 |  |  |  | 
O=C1NC(=S)S/C1=C\c1cccc(-c2ccc3c(c2)OCO3)n1 [Compound 3h, (5Z)-5-{[6-(1,3-Benzodioxol-5-yl)pyridin-2-yl]methylene}-2-thioxo-1,3-thiazolidin-4-one] | > 10 | 1.6 | > 10 | 0.35 |  |  |  | 
O=C1NC(=S)S/C1=C\c1ccc2c(c1)CCCO2 [Compound 3m, (5Z)-5-(Chroman-6-yl)methylene-2-thioxo-1,3-thiazolidin-4-one] | > 10 | > 10 | > 10 | 6.5 |  |  |  | 
O=C1NC(=S)S/C1=C\c1ccc2c(c1)OCCCO2 [Compound 3n, (5Z)-5-(3,4-Dihydro-2H-1,5-benzodioxepine-7-yl)methylene-2-thioxo-1,3-thiazolidin-4-one] | > 10 | > 10 | > 10 | > 10 |  |  |  | 
NN1C(=O)/C(=C/c2ccc3c(c2)OCO3)SC1=S [Compound 3o, (5Z)-3-Amino-5-benzo[1,3]dioxol-5-ylmethylene-2-thioxo-thiazolidin-4-one] | > 10 | > 10 | > 10 | > 10 |  |  |  | 
O=C(NN1C(=O)/C(=C/c2ccc3c(c2)OCO3)SC1=S)c1ccccc1 [Compound 3p, (5Z)-N-(5-Benzo[1,3]dioxol-5-ylmethylene-4-oxo-2-thioxo-thiazolidin-3-yl)-benzamide] | > 10 | > 10 | > 10 | > 10 |  |  |  | 
O=C(Cc1ccccc1)NN1C(=O)/C(=C/c2ccc3c(c2)OCO3)SC1=S [Compound 3q, (5Z)-N-(5-Benzo[1,3]dioxol-5-ylmethylene-4-oxo-2-thioxo-thiazolidin-3-yl)-2-phenyl-acetamide] | > 10 | > 10 | > 10 | > 10 |  |  |  | 
O=C(CCc1ccccc1)NN1C(=O)/C(=C/c2ccc3c(c2)OCO3)SC1=S [Compound 3r, (5Z)-N-(5-Benzo[1,3]dioxol-5-ylmethylene-4-oxo-2-thioxo-thiazolidin-3-yl)-3-phenyl-propionamide] | > 10 | > 10 | > 10 | > 10 |  |  |  | 
COc1ccc(C(=O)NN2C(=O)/C(=C/c3ccc4c(c3)OCO4)SC2=S)cc1 [Compound 3s] | > 10 | > 10 | > 10 | > 10 |  |  |  | 
O=C1/C(=C/c2ccc3c(c2)OCO3)SC(=S)N1NS(=O)(=O)c1ccccc1 [Compound 3t, (5Z)-N-(5-Benzo[1,3]dioxol-5-ylmethylene-4-oxo-2-thioxo-thiazolidin-3-yl)-benzenesulfonamide] | > 10 | > 10 | > 10 | > 10 |  |  |  | 
O=C(O)CN1C(=O)/C(=C/c2ccc3c(c2)OCO3)SC1=S [Compound 3u, (5Z)-(5-Benzo[1,3]dioxol-5-ylmethylene-4-oxo-2-thioxo-thiazolidin-3-yl)-acetic acid] | > 10 | > 10 | > 10 | 0.16 |  |  |  | 
O=C(O)CCN1C(=O)/C(=C/c2ccc3c(c2)OCO3)SC1=S [Compound 3v, (5Z)-3-(5-Benzo[1,3]dioxol-5-ylmethylene-4-oxo-2-thioxo-thiazolidin-3-yl)-propionic acid] | > 10 | > 10 | > 10 | 0.7 |  |  |  | 
O=C1N=C(N2CCOCC2)S/C1=C\c1ccc2c(c1)OCO2 [Compound 5a, (5Z)-5-(1,3-Benzodioxol-5-ylmethylene)-2-(morpholin-1-yl)-1,3-thiazol-4(5H)-one] |  |  |  |  | > 10 | 7.4 | > 10 | 0.63
COc1ccc(/C=C2\SC(N3CCOCC3)=NC2=O)cc1OC [Compound 5b, (5Z)-5-(3,4-Dimethoxybenzylidene)-2-(morpholin-1-yl)-1,3-thiazol-4(5H)-one] |  |  |  |  | > 10 | > 10 | > 10 | > 10
O=C1N=C(N2CCNCC2)S/C1=C\c1ccc2c(c1)OCO2 [Compound 5e, (5Z)-5-(1,3-Benzodioxol-5-ylmethylene)-2-(piperazin-1-yl)-1,3-thiazol-4(5H)-one] |  |  |  |  | > 10 | ≤ 8.8 | > 10 | 1.8
CN1CCN(C2=NC(=O)/C(=C/c3ccc4c(c3)OCO4)S2)CC1 [Compound 5f, (5Z)-5-(1,3-Benzodioxol-5-ylmethylene)-2-(4-N-methylpiperazin-1-yl)-1,3-thiazol-4(5H)-one] |  |  |  |  | > 10 | > 10 | > 10 | 2.3
O=C1N=C(N2CCSCC2)S/C1=C\c1ccc2c(c1)OCO2 [Compound 5g, (5Z)-5-(1,3-Benzodioxol-5-ylmethylene)-2-(thiomorpholin-1-yl)-1,3-thiazol-4(5H)-one] |  |  |  |  | > 10 | ≥ 10 | > 10 | 0.4
COc1ccc(/C=C2\SC(N3CCSCC3)=NC2=O)cc1OC [Compound 5h, (5Z)-5-(3,4-Dimethoxybenzylidene)-2-(thiomorpholin-1-yl)-1,3-thiazol-4(5H)-one] |  |  |  |  | > 10 | > 10 | > 10 | > 10
O=C1N=C(N2CCCCC2)S/C1=C\c1ccc2c(c1)OCO2 [Compound 5i, (5Z)-5-(1,3-Benzodioxol-5-ylmethylene)-2-(piperidin-1-yl)-1,3-thiazol-4(5H)-one] |  |  |  |  | > 10 | 7.4 | > 10 | 0.053
O=C1N=C(N2CCN(Cc3ccc4c(c3)OCO4)CC2)S/C1=C\c1ccc2c(c1)OCO2 [Compound 5j, (5Z)-5-(1,3-Benzodioxol-5-ylmethylene)-2-[1-(1,3-benzodioxol-5-ylmethyl)piperazin-1-yl]-1,3-thiazol-4(5H)-one] |  |  |  |  | > 10 | > 10 | > 10 | ≥ 10
O=C1N=C(N2CCN(c3ccc(F)cc3)CC2)S/C1=C\c1ccc2c(c1)OCO2 [Compound 5k, (5Z)-5-(1,3-Benzodioxol-5-ylmethylene)-2-[1-(4-fluorophenyl)piperazin-1-yl]-1,3-thiazol-4(5H)-one] |  |  |  |  | > 10 | > 10 | > 10 | 1.6
O=C1N=C(N2CCN(c3ncccn3)CC2)S/C1=C\c1ccc2c(c1)OCO2 [Compound 5l, (5Z)-5-(1,3-Benzodioxol-5-ylmethylene)-2-[4-(pyrimidin-2-yl)piperazin-1-yl]-1,3-thiazol-4(5H)-one] |  |  |  |  | > 10 | > 10 | > 10 | 1.8
O=C1N=C(N2CCOCC2)S/C1=C\c1ccc2c(c1)CCO2 [Compound 5m, (5Z)-5-(2,3-Dihydro-benzofuran-5-ylmethylene)-2-(morpholin-4-yl)-1,3-thiazol-4(5H)-one] |  |  |  |  | > 10 | ≥ 10 | > 10 | 0.6
O=C1N=C(N2CCSCC2)S/C1=C\c1ccc2c(c1)CCO2 [Compound 5n, (5Z)-5-(2,3-Dihydro-benzofuran-5-ylmethylene)-2-(thiomorpholin-4-yl)-1,3-thiazol-4(5H)-one] |  |  |  |  | > 10 | 5.3 | > 10 | 0.07
O=C1N=C(N2CCCCC2)S/C1=C\c1ccc2c(c1)CCO2 [Compound 5o, (5Z)-5-(2,3-Dihydro-benzofuran-5-ylmethylene)-2-(piperidin-1-yl)-1,3-thiazol-4(5H)-one] |  |  |  |  | > 10 | 4.7 | ≥ 10 | 0.09
O=C1N=C(N2CCCCC2)S/C1=C\c1ccc2c(c1)OCCO2 [Compound 5p, (5Z)-5-(2,3-Dihydro-1,4-benzodioxin-6-ylmethylene)-2-(piperidin-1-yl)-1,3-thiazol-4(5H)-one] |  |  |  |  | > 10 | > 10 | ≥ 10 | 0.94
